# Measurements reported in US8815872B2, “Macrocyclics pyrimidines as aurora kinase inhibitors” (Merck Patent GmbH, priority 2008, dated 2014).
# Tests used:
# [1] = target: T1, Aurora A (Homo sapiens, UniProt O14965); assay: Aurora A enzyme assay (Caliper LC3000 mobility shift); type: biochemical
# T1 construct: N-terminal GST fusion with full length Aurora A (1-403 amino acids); purchased Carna Biosciences 05-101
# T1 sequence (O14965 1-403): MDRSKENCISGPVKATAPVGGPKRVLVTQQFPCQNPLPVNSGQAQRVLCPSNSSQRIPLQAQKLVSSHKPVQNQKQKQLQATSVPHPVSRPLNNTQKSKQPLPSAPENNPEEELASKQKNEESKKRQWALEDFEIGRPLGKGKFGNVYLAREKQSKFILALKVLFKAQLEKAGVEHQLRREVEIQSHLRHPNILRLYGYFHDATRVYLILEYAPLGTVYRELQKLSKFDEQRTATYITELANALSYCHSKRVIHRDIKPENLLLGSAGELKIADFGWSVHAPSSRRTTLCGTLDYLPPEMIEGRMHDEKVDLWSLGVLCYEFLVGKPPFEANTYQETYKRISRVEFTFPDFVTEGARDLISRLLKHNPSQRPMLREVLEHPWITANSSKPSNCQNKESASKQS
# Method: (§1) The Aurora and other kinase assays described here were performed on two Caliper Life Sciences systems, the LC3000 and the Desktop Profiler. These provide data on enzyme activity via measurement of the relative amounts of phosphorylated or unphosphorylated fluorescently labelled substrate peptide at the end of an enzymatic reaction. These different states of peptide are resolved by applying a potential difference across the sample. The presence of a charged phosphate group on the product (as opposed to the substrate) causes a different peptide mobility between the two peptides. This is visualized by excitation of a fluorescent label on the substrate and product peptides and represented as peaks within the analysis software.
# For example, in order to measure inhibitor activity of Aurora A inhibitors in the Caliper Life Sciences LC3000, a TTP Mosquito liquid handling instrument was used to place […] of an appropriate concentration of inhibitor in 100% DMSO (for a dose response curve calculation) into each well of a 384-well plate. To this reaction components were added to a final volume of 25 μl: • 0.067 ng/μl GST-Aurora A (Carna Biosciences 05-101. N-terminal GST fusion with full length Aurora A (1-403 amino acids), accession number NP_940835.1). • 15 μM ATP (Fluka, 02055) • 1 mM DTT (Sigma, D0632) • 1 mM MgC12 (Sigma, M1028) • 1 μM substrate peptide (sequence FITC-LRRASLG-(CONH2), synthesized by Tufts Peptide Synthesis service. • 100 mM HEPES pH 7.5 (Calbiochem, 391338) • 0.015% Brij-35 (Sigma, B4184)
# The reaction was incubated for 90 min at 25° C., and then stopped by the addition of 70 μl of Stop buffer (100 mM HEPES pH 7.5, 0.015% Brij-35, 10 mM EDTA (Sigma, E7889)).
# The plate was read on a Caliper LC 3000 in an Off-Chip mobility shift assay format, using the following parameters for a 12-sipper chip: screening pressure −1.8 psi, upstream voltage −2700, downstream voltage −1000. These conditions cause unphosphorylated substrate and phosphorylated product peptide to resolve as separate peaks allowing direct measurement of percentage of conversion of substrate to product. The percent conversion was plotted against concentration of inhibitor to produce a sigmoidal dose response curve, from which an IC50 was calculated using XLFit for Microsoft Excel.
# [2] = target: Aurora B (Homo sapiens, UniProt Q96GD4); assay: Aurora B enzyme assay (Caliper); type: biochemical
# Sequence of Aurora B (Q96GD4 whole entry): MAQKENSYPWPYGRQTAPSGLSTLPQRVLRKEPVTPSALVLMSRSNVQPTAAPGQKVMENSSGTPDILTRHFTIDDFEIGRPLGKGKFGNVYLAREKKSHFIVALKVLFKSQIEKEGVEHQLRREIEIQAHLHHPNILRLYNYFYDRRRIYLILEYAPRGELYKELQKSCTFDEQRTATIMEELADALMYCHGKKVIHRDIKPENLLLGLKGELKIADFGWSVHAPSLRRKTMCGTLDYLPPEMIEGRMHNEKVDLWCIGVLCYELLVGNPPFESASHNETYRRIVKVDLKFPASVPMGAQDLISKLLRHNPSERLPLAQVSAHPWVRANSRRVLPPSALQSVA
# Method: as §1
# [3] = target: kinases (not incl. Aurora); assay: Kinase inhibition profile (not incl. Aurora); type: biochemical; details: hit means >79% inhibition
# Method: as §1
# The Desktop Profiler utilizes the same principal as the LC 3000 for calculating percentage conversion of a substrate to product. Caliper Life Sciences provided proprietary flash frozen pre-made 384 well plates containing selected kinases. Each column in the 384 well plate contained a particular selected kinase. A second plate, the ‘substrate plate’ contained a mix of fluorescently labeled peptide substrate and ATP. These were arranged in columns so that transfer for substrate plate to enzyme plate provided the correct enzyme with the correct substrate/ATP concentration.
# Compounds were added to a thawed enzyme plate in the desired format, in single concentrations. Reactions were initiated by transfer of the ubstrate/ATP mix from the substrate plate. The enzyme plate was incubated for 90 mins at 25 °C. The reaction was stopped by addition of […] of Stop Buffer (100 mM HEPES pH 7.5, 0.015% Brij-35, 10 mM EDTA (Sigma, E7889)).
# Plates were read in a manner identical to that of the LC3000, and the ratio between substrate and product peaks provided the activity of the enzyme in that well. This was best represented by a plate heat map which colors each well by percent inhibition as compared to positive and negative controls (no inhibitors and no ATP respectively).
# [4] = system: A549; assay: Cellular activity A549; type: cell-based; details: Homo sapiens
# Method: (§2) The susceptibility of a particular cell to treatment with the compounds according to the invention was determined by in vitro tests. Typically, a culture of the cell was combined with a compound according to the invention at various concentrations for a period of time that was sufficient to allow the active agents to induce cell death or to inhibit migration, usually between about one hour and one week. In vitro testing was carried out using cultivated cells from a biopsy sample. The viable cells remaining after the treatment then were counted.
# [5] = system: MiaPaca2; assay: Cellular activity MiaPaca2; type: cell-based; details: for IC50: Homo sapiens, MIA PaCa-2
# Method: as §2
SMILES,IC50 [1] [nM],IC50 [2] [nM],Kinase Inhibition Profile (not incl. Aurora) # kinases hit/# kinases tested ([3]; at 1 μM),Kinase Inhibition Profile (not incl. Aurora) # kinases hit/# kinases tested ([3]; at 10 μM),IC50 [4] [nM],Cellular Activity MiaPaca2 IC50 (nM) ([5]; MiaPaca2),IC50 [5] [nM]
C=CC1CC2/C=C/COc3cccc(c3)Nc3ncc(F)c(n3)N[C@H]2[C@H]1C(N)=O (stereo partly drawn),101 to 1000,101 to 1000,0/36,12/255,,,
CCC1CC2/C=C\COc3cccc(c3)Nc3ncc(F)c(n3)N[C@H]2[C@H]1C(N)=O (stereo partly drawn),1 to 100,1 to 100,1/36 at 1 uM,,,,
NC(=O)[C@H]1[C@H]2C[C@H]3[C@H]1Nc1nc(ncc1F)Nc1ccc4c(c1)CN(CC4)C(=O)CS[C@@H]3C2,1 to 100,1 to 100,,,1000 to 6250,,1000 to 6250
NC(=O)[C@H]1[C@H]2C[C@H]3[C@H]1Nc1nc(ncc1F)Nc1ccc4c(c1)N(CC4)C(=O)CS[C@@H]3C2,1 to 100,101 to 1000,,,> 6250,,> 6250
NC(=O)[C@H]1[C@H]2C[C@H]3[C@H]1Nc1nc(ncc1F)Nc1cccc(c1)[C@@H](O)CS[C@@H]3C2,1 to 100,1 to 100,,,101 to 1000,,101 to 1000
CN1CCN(c2ccc3cc2[C@H](O)CS[C@@H]2C[C@@H]4C[C@H]2[C@@H](Nc2nc(ncc2F)N3)[C@H]4C(N)=O)CC1,1 to 100,1 to 100,121/267 at 1 μM,,1 to 100,,1 to 100
NC(=O)[C@H]1[C@H]2C[C@H]3[C@H]1Nc1nc(ncc1F)Nc1cccc(c1)CSS[C@@H]3C2 [drawing 213],1 to 100,1 to 100,,,1000 to 6250,,1000 to 6250

# More lines, now with the values ahead:
IC50 [1] [nM],IC50 [2] [nM],Kinase Inhibition Profile (not incl. Aurora) # kinases hit/# kinases tested ([3]; at 1 μM),Kinase Inhibition Profile (not incl. Aurora) # kinases hit/# kinases tested ([3]; at 10 μM),IC50 [4] [nM],Cellular Activity MiaPaca2 IC50 (nM) ([5]; MiaPaca2),IC50 [5] [nM],SMILES
1 to 100,1 to 100,0/36 at 1 uM,,,,,C=CC1CC2/C=C\COc3cccc(c3)Nc3ncc(F)c(n3)N[C@H]2[C@H]1C(N)=O (stereo partly drawn)
101 to 1000,101 to 1000,0/36 at 1 uM,,,,,CCC1CC2CCCOc3cccc(c3)Nc3ncc(F)c(n3)N[C@H]2[C@H]1C(N)=O (stereo partly drawn)
101 to 1000,101 to 1000,,,1000 to 6250,+++=,,NC(=O)[C@H]1[C@H]2C[C@H]3[C@H]1Nc1nc(ncc1F)Nc1cccc(c1)[C@H](OCCCN1CCOCC1)CS[C@@H]3C2
1 to 100,1 to 100,121/267 at 1 μM,,1 to 100,,1 to 100,CN1CCN(c2ccc3cc2[C@@H](O)CS[C@@H]2C[C@@H]4C[C@H]2[C@@H](Nc2nc(ncc2F)N3)[C@H]4C(N)=O)CC1
101 to 1000,1000 to 6250,0/73 at 1 μM,,> 6250,,1000 to 6250,CN1CCN(c2ccc3cc2CC(=O)NC[C@@H]2C[C@@H]4C[C@H]2[C@@H](Nc2nc(ncc2F)N3)[C@H]4C(N)=O)CC1
101 to 1000,101 to 1000,0/73 at 1 μM,,> 6250,,1000 to 6250,CN1CCN(c2ccc3cc2C(=O)NC[C@@H]2C[C@@H]4C[C@H]2[C@@H](Nc2nc(ncc2F)N3)[C@H]4C(N)=O)CC1
1 to 100,,14/264 at 1 μM,,1000 to 6250,,101 to 1000,CN1CCN(c2cc3cc(c2)C(=O)NC[C@@H]2C[C@@H]4C[C@H]2[C@@H](Nc2nc(ncc2F)N3)[C@H]4C(N)=O)CC1
1 to 100,1 to 100,2/73 at 1 μM,,> 6250,,1000 to 6250,NC(=O)[C@H]1[C@@H]2C[C@H]3CNC(=O)Cn4cc(cn4)Nc4ncc(F)c(n4)N[C@@H]1[C@@H]3C2
1 to 100,1 to 100,,,1000 to 6250,,1000 to 6250,NC(=O)[C@H]1[C@H]2C[C@H]3[C@H]1Nc1nc(ncc1F)Nc1cccc(c1)CCS[C@@H]3C2 [drawing 234]
